PMC5138282, “Glyphosate-Resistant Parthenium hysterophorus in the Caribbean Islands: Non Target Site Resistance and Target Site Resistance in Relation to Resistance Levels” (Frontiers in Plant Science, 2016)
Where two headings read alike, the source gives them in different places.

Assays:
[1] = tested on: 5-enolpyruvylshikimate-3-phosphate synthase (EPSPS), P. hysterophorus accessions from Cuba; assay: phosphate release (EnzCheck phosphate assay kit), leaf extract; format: biochemical, Parthenium hysterophorus; settings: read-out: I50 (μM)^a
[2] = tested on: 5-enolpyruvylshikimate-3-phosphate synthase (EPSPS), P. hysterophorus accessions from Dominican Republic; settings: read-out: I50 (μM)^a, natural mutant, native extract, other EPSPS alleles/copies not excluded, buffer as for Cu-S, stated gain
Source text: phosphate release (EnzCheck phosphate assay kit), leaf extract on 5-enolpyruvylshikimate-3-phosphate synthase (EPSPS), P. hysterophorus accessions from Dominican Republic

[3] = tested on: 5-enolpyruvylshikimate-3-phosphate synthase (EPSPS), P. hysterophorus accessions from Dominican Republic; assay: phosphate release (EnzCheck phosphate assay kit), leaf extract; format: biochemical, Parthenium hysterophorus; settings: buffer as for Cu-S, read-out: I50 (μM)^a
[4] = tested on: 5-enolpyruvylshikimate-3-phosphate synthase (EPSPS), P. hysterophorus accessions from Cuba; settings: read-out: I50 (μM)^a; accession Cu-R1; natural mutant, native extract, other EPSPS alleles/copies not excluded; buffer as for Cu-S; stated gain
Source text: phosphate release (EnzCheck phosphate assay kit), leaf extract on 5-enolpyruvylshikimate-3-phosphate synthase (EPSPS), P. hysterophorus accessions from Cuba

`O=C(O)CNCP(=O)(O)O` [glyphosate, (N-phosphonomethyl)-glycine] showed an IC50 ([1]; accession Cu-R2 (resistant plants, no Pro106 change), buffer as for Cu-S) of 18.9 ± 1.4 µM, an IC50 ([1]; accession Cu-R3 (resistant plants, no Pro106 change), buffer as for Cu-S) of 17.4 ± 2.8 µM and an IC50 ([1]; accession Cu-S (susceptible), 100 mM MOPS, 1 mM MgCl2, 10% glycerol, 2 mM sodium molybdate, 200 mM NaF) of 13.6 ± 2.2 µM. It also gave an IC50 ([2]; accession Do-R1) of 468 ± 22 µM, an IC50 ([2]; accession Do-R2) of 411 ± 26.1 µM and an IC50 ([3]; accession Do-R3 (resistant plants, no Pro106 change)) of 22.6 ± 1.5 µM. The IC50 ([3]; accession Do-R4 (resistant plants, no Pro106 change)) was 20.8 ± 6.1 µM, the IC50 ([3]; accession Do-S (susceptible)) was 18.5 ± 5.7 µM and the IC50 [4] was 646 ± 35.8 µM.
